The values that follow are results of earlier work, collected in patent publication US11633409B2, “Solid preparation comprising dutasteride and method for preparing same” (JW PHARMACEUTICAL CORPORATION, priority 2017, dated 2023).

Test in data set [1]: not given
The source holds these as a separate data set.

Like-named read-outs stand apart in the source and are kept apart here.

As to `C[C@]12C=CC(=O)NC1CCC1C2CC[C@@]2(C)C1CC[C@@H]2C(=O)Nc1cc(C(F)(F)F)ccc1C(F)(F)F` (stereo partly shown) [dutasteride, Dutasteride], the equilibrium solubility is given as 2.75 g/100 g (in Capmul MCM NF); 0.39 g/100 g (in PEG 400); 2.41 g/100 g (in Transcutol); 4.40 g/100 g (in ethanol); 3.06 g/100 g (in isopropanol); 1.34 g/100 g (in propylene glycol). Besides, the solubility in water result in data set [1] is “insoluble in water”.
